# Laboratory results: the supplement of paper PMC10307832
# Legend:
# Experiment in all cases: relative viability (nuclei count vs DMSO), 5 days (fraction); higher = more cells survive
# Hydroxychloroquine = compound: CCN(CCO)CCCC(C)Nc1ccnc2cc(Cl)ccc12 [Hydroxychloroquine]
# Procedure, shortened: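 Acceptance criteria were a control CV below 25% and at least one doubling per plate. Lung cancer cell lines in 1536-well plates got five library-drug doses (not always all listed) √10 apart by pinning and were left 5 days with no medium change. Viability divides treated-well nuclei by vehicle-well nuclei and is the median across plates. Nuclei were counted by MetaXpress from 4× Hoechst images.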
# [1] = compound: CCN(CCO)CCCC(C)Nc1ccnc2cc(Cl)ccc12 [Hydroxychloroquine] + Cc1cc(Nc2cc(N3CCN(C)CC3)nc(Sc3ccc(NC(=O)C4CC4)cc3)n2)n[nH]1 [Tozasertib] (partner 0.1 µM)
# Procedure, shortened: (§1)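 For relative viability, nuclei counts in treated wells were divided by those in vehicle wells. Lung cancer cell lines had been pin-tool dosed in 1536-well plates the day after seeding and cultured for 5 days, then fixed and stained in one step (final 0.05% Triton X-100, 1% formaldehyde, 1 ug/ml Hoechst) and imaged at 4×. Doses were one drug alone or a fixed anchor-drug dose plus five library-drug doses (not always all listed) in √10 steps, and values are duplicate-plate medians.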
# [2] = compound: CCN(CCO)CCCC(C)Nc1ccnc2cc(Cl)ccc12 [Hydroxychloroquine] + COc1cc2c(Oc3ccc(NC(=O)C4(C(=O)Nc5ccc(F)cc5)CC4)cc3F)ccnc2cc1OCCCN1CCOCC1 [Foretinib] (partner 0.25 µM)
# Procedure, shortened: as §1
# [3] = compound: CCN(CCO)CCCC(C)Nc1ccnc2cc(Cl)ccc12 [Hydroxychloroquine] + Nc1nc2[nH]cc(CCc3ccc(C(=O)N[C@@H](CCC(=O)O)C(=O)O)cc3)c2c(=O)[nH]1 [Pemetrexed] (partner 0.2 µM)
# Procedure, shortened: as §1
# [4] = compound: CCN(CCO)CCCC(C)Nc1ccnc2cc(Cl)ccc12 [Hydroxychloroquine] + CC(=O)c1c(C)c2cnc(Nc3ccc(N4CCNCC4)cn3)nc2n(C2CCCC2)c1=O [Palbociclib] (partner 0.5 µM)
# Procedure, shortened: as §1
# [5] = compound: CCN(CCO)CCCC(C)Nc1ccnc2cc(Cl)ccc12 [Hydroxychloroquine] + Cc1nc(Nc2ncc(C(=O)Nc3c(C)cccc3Cl)s2)cc(N2CCN(CCO)CC2)n1 [Dasatinib] (partner 0.075 µM)
# Procedure, shortened: as §1
# [6] = compound: CCN(CCO)CCCC(C)Nc1ccnc2cc(Cl)ccc12 [Hydroxychloroquine] + O=C(c1cc(Cc2n[nH]c(=O)c3ccccc23)ccc1F)N1CCN(C(=O)C2CC2)CC1 [Olaparib] (partner 8 µM)
# Procedure, shortened: as §1
# [7] = compound: CCN(CCO)CCCC(C)Nc1ccnc2cc(Cl)ccc12 [Hydroxychloroquine] + CCNC(=O)c1noc(-c2cc(C(C)C)c(O)cc2O)c1-c1ccc(CN2CCOCC2)cc1 [Luminespib] (partner 0.01 µM)
# Procedure, shortened: as §1
# [8] = compound: CCN(CCO)CCCC(C)Nc1ccnc2cc(Cl)ccc12 [Hydroxychloroquine] + Nc1ncn([C@H]2C[C@H](O)[C@@H](CO)O2)c(=O)n1 [Decitabine] (partner 2 µM)
# Procedure, shortened: as §1
# [9] = compound: CCN(CCO)CCCC(C)Nc1ccnc2cc(Cl)ccc12 [Hydroxychloroquine] + COc1cccc2cc(-c3nc([C@H]4CC[C@H](C(=O)O)CC4)n4ncnc(N)c34)[nH]c12 [OSI-027] (partner 0.5 µM)
# Procedure, shortened: as §1
# [10] = compound: CCN(CCO)CCCC(C)Nc1ccnc2cc(Cl)ccc12 [Hydroxychloroquine] + N=C(N)NC(=N)NCCc1ccccc1 [Phenformin] (partner 250 µM)
# Procedure, shortened: as §1
# [11] = compound: CCN(CCO)CCCC(C)Nc1ccnc2cc(Cl)ccc12 [Hydroxychloroquine] + NC(=O)Nc1cc(-c2cccc(F)c2)sc1C(=O)N[C@H]1CCCNC1 [AZD7762] (partner 0.2 µM)
# Procedure, shortened: as §1
# [12] = compound: CCN(CCO)CCCC(C)Nc1ccnc2cc(Cl)ccc12 [Hydroxychloroquine] + O=C(CCCCCCC(=O)Nc1ccccc1)NO [Vorinostat] (partner 1 µM)
# Procedure, shortened: as §1
# [13] = compound: CCN(CCO)CCCC(C)Nc1ccnc2cc(Cl)ccc12 [Hydroxychloroquine] + CC(=O)Nc1cccc(-n2c(=O)n(C3CC3)c(=O)c3c(Nc4ccc(I)cc4F)n(C)c(=O)c(C)c32)c1 [Trametinib] (partner 0.02 µM)
# Procedure, shortened: as §1
# [14] = compound: CCN(CCO)CCCC(C)Nc1ccnc2cc(Cl)ccc12 [Hydroxychloroquine] + CS(=O)(=O)N1CCN(Cc2cc3nc(-c4cccc5[nH]ncc45)nc(N4CCOCC4)c3s2)CC1 [Pictilisib] (partner 1 µM)
# Procedure, shortened: as §1
# [15] = compound: CCN(CCO)CCCC(C)Nc1ccnc2cc(Cl)ccc12 [Hydroxychloroquine] + CS(=O)(=O)CCNCc1ccc(-c2ccc3ncnc(Nc4ccc(OCc5cccc(F)c5)c(Cl)c4)c3c2)o1 [Lapatinib] (partner 2 µM)
# Procedure, shortened: as §1
# [16] = compound: CCN(CCO)CCCC(C)Nc1ccnc2cc(Cl)ccc12 [Hydroxychloroquine] + C[C@]1(O)C[C@@H](c2nc(-c3ccc4ccc(-c5ccccc5)nc4c3)c3c(N)nccn32)C1 [Linsitinib] (partner 1 µM)
# Procedure, shortened: as §1
# [17] = compound: CCN(CCO)CCCC(C)Nc1ccnc2cc(Cl)ccc12 [Hydroxychloroquine] + C[C@@H](Oc1cc(-c2cnn(C3CCNCC3)c2)cnc1N)c1c(Cl)ccc(F)c1Cl [Crizotinib] (partner 1 µM)
# Procedure, shortened: as §1
# [18] = compound: CCN(CCO)CCCC(C)Nc1ccnc2cc(Cl)ccc12 [Hydroxychloroquine] + CC(C)C[C@H](NC(=O)[C@H](Cc1ccccc1)NC(=O)c1cnccn1)B(O)O [Bortezomib] (partner 0.002 µM)
# Procedure, shortened: as §1
# [19] = compound: CCN(CCO)CCCC(C)Nc1ccnc2cc(Cl)ccc12 [Hydroxychloroquine] + Cc1nc(NC(=O)N2CCC[C@H]2C(N)=O)sc1-c1ccnc(C(C)(C)C(F)(F)F)c1 [Alpelisib] (partner 2 µM)
# Procedure, shortened: as §1
# [20] = compound: CCN(CCO)CCCC(C)Nc1ccnc2cc(Cl)ccc12 [Hydroxychloroquine] + CC1(C)CCC(c2ccc(Cl)cc2)=C(CN2CCN(c3ccc(C(=O)NS(=O)(=O)c4ccc(N[C@H](CCN5CCOCC5)CSc5ccccc5)c(S(=O)(=O)C(F)(F)F)c4)cc3)CC2)C1 [Navitoclax] (partner 0.5 µM)
# Procedure, shortened: as §1
cell line,measurement,setting,value
SW 900,relative viability,Hydroxychloroquine; 0.5 µM,0.879
same,relative viability,Hydroxychloroquine; 1.581 µM,0.729
same,relative viability,Hydroxychloroquine; 5 µM,0.837
same,relative viability,Hydroxychloroquine; 15.81 µM,0.717
same,relative viability,Hydroxychloroquine; 50 µM,0.889
same,relative viability,[1]; first compound 0.5 µM,0.517
same,relative viability,[1]; first compound 1.581 µM,0.531
same,relative viability,[1]; first compound 5 µM,0.548
same,relative viability,[1]; first compound 15.81 µM,0.74
same,relative viability,[1]; first compound 50 µM,0.572
same,relative viability,[2]; first compound 0.5 µM,0.941
same,relative viability,[2]; first compound 1.581 µM,0.824
same,relative viability,[2]; first compound 5 µM,0.866
same,relative viability,[2]; first compound 15.81 µM,0.816
same,relative viability,[2]; first compound 50 µM,0.869
same,relative viability,[3]; first compound 0.5 µM,0.43
same,relative viability,[3]; first compound 1.581 µM,0.47
same,relative viability,[3]; first compound 5 µM,0.448
same,relative viability,[3]; first compound 15.81 µM,0.457
same,relative viability,[3]; first compound 50 µM,0.444
same,relative viability,[4]; first compound 0.5 µM,0.5
same,relative viability,[4]; first compound 1.581 µM,0.502
same,relative viability,[4]; first compound 5 µM,0.568
same,relative viability,[4]; first compound 15.81 µM,0.597
same,relative viability,[4]; first compound 50 µM,0.657
same,relative viability,[5]; first compound 0.5 µM,0.586
same,relative viability,[5]; first compound 1.581 µM,0.574
same,relative viability,[5]; first compound 5 µM,0.671
same,relative viability,[5]; first compound 15.81 µM,0.528
same,relative viability,[5]; first compound 50 µM,0.559
same,relative viability,[6]; first compound 0.5 µM,0.894
same,relative viability,[6]; first compound 1.581 µM,0.852
same,relative viability,[6]; first compound 5 µM,0.88
same,relative viability,[6]; first compound 15.81 µM,0.819
same,relative viability,[6]; first compound 50 µM,0.75
same,relative viability,[7]; first compound 0.5 µM,0.156
same,relative viability,[7]; first compound 1.581 µM,0.176
same,relative viability,[7]; first compound 5 µM,0.195
same,relative viability,[7]; first compound 15.81 µM,0.17
same,relative viability,[7]; first compound 50 µM,0.177
same,relative viability,[8]; first compound 0.5 µM,0.398
same,relative viability,[8]; first compound 1.581 µM,0.445
same,relative viability,[8]; first compound 5 µM,0.422
same,relative viability,[8]; first compound 15.81 µM,0.417
same,relative viability,[8]; first compound 50 µM,0.41
same,relative viability,[9]; first compound 0.5 µM,0.491
same,relative viability,[9]; first compound 1.581 µM,0.664
same,relative viability,[9]; first compound 5 µM,0.482
same,relative viability,[9]; first compound 15.81 µM,0.547
same,relative viability,[9]; first compound 50 µM,0.505
same,relative viability,[10]; first compound 0.5 µM,0.514
same,relative viability,[10]; first compound 1.581 µM,0.496
same,relative viability,[10]; first compound 5 µM,0.509
same,relative viability,[10]; first compound 15.81 µM,0.585
same,relative viability,[10]; first compound 50 µM,0.513
same,relative viability,[11]; first compound 0.5 µM,0.678
same,relative viability,[11]; first compound 1.581 µM,0.681
same,relative viability,[11]; first compound 5 µM,0.679
same,relative viability,[11]; first compound 15.81 µM,0.748
same,relative viability,[11]; first compound 50 µM,0.594
same,relative viability,[12]; first compound 0.5 µM,0.532
same,relative viability,[12]; first compound 1.581 µM,0.535
same,relative viability,[12]; first compound 5 µM,0.504
same,relative viability,[12]; first compound 15.81 µM,0.382
same,relative viability,[12]; first compound 50 µM,0.505
same,relative viability,[13]; first compound 0.5 µM,0.761
same,relative viability,[13]; first compound 1.581 µM,1.01
same,relative viability,[13]; first compound 5 µM,0.779
same,relative viability,[13]; first compound 15.81 µM,0.879
same,relative viability,[13]; first compound 50 µM,0.806
NCI-H1299,relative viability,Hydroxychloroquine; 0.5 µM,1.02
same,relative viability,Hydroxychloroquine; 1.581 µM,0.938
same,relative viability,Hydroxychloroquine; 5 µM,1.01
same,relative viability,Hydroxychloroquine; 15.81 µM,1.02
same,relative viability,Hydroxychloroquine; 50 µM,1.02
same,relative viability,[2]; first compound 0.5 µM,1.09
same,relative viability,[2]; first compound 1.581 µM,1.05
same,relative viability,[2]; first compound 5 µM,1.14
same,relative viability,[2]; first compound 15.81 µM,1.12
same,relative viability,[2]; first compound 50 µM,1.06
same,relative viability,[14]; first compound 0.5 µM,0.805
same,relative viability,[14]; first compound 1.581 µM,0.682
same,relative viability,[14]; first compound 5 µM,0.867
same,relative viability,[14]; first compound 15.81 µM,0.845
same,relative viability,[14]; first compound 50 µM,0.746
same,relative viability,[6]; first compound 0.5 µM,0.997
same,relative viability,[6]; first compound 1.581 µM,0.974
same,relative viability,[6]; first compound 5 µM,0.947
same,relative viability,[6]; first compound 15.81 µM,1.01
same,relative viability,[6]; first compound 50 µM,0.917
same,relative viability,[15]; first compound 0.5 µM,0.965
same,relative viability,[15]; first compound 1.581 µM,0.914
same,relative viability,[15]; first compound 5 µM,0.903
same,relative viability,[15]; first compound 15.81 µM,0.919
same,relative viability,[15]; first compound 50 µM,0.936
same,relative viability,[16]; first compound 0.5 µM,1.03
same,relative viability,[16]; first compound 1.581 µM,0.633
same,relative viability,[16]; first compound 5 µM,1.03
same,relative viability,[16]; first compound 15.81 µM,0.973
same,relative viability,[16]; first compound 50 µM,1.06
same,relative viability,[17]; first compound 0.5 µM,0.999
same,relative viability,[17]; first compound 1.581 µM,0.937
same,relative viability,[17]; first compound 5 µM,0.91
same,relative viability,[17]; first compound 15.81 µM,0.98
same,relative viability,[17]; first compound 50 µM,0.693
same,relative viability,[18]; first compound 0.5 µM,1.01
same,relative viability,[18]; first compound 1.581 µM,1.01
same,relative viability,[18]; first compound 5 µM,1.04
same,relative viability,[18]; first compound 15.81 µM,1.03
same,relative viability,[18]; first compound 50 µM,0.942
same,relative viability,[19]; first compound 0.5 µM,0.999
same,relative viability,[19]; first compound 1.581 µM,1.04
same,relative viability,[19]; first compound 5 µM,1.03
same,relative viability,[19]; first compound 15.81 µM,1.12
same,relative viability,[19]; first compound 50 µM,0.996
same,relative viability,[20]; first compound 0.5 µM,1.05
same,relative viability,[20]; first compound 1.581 µM,1.01
same,relative viability,[20]; first compound 5 µM,1.02
same,relative viability,[20]; first compound 15.81 µM,1.05
same,relative viability,[20]; first compound 50 µM,1.04
